# Data published in a melting point compilation (Tetko et al.; mined from patent text by program, amines drawn as free bases though some values may be those of a salt).
row,melting point,SMILES
1,200 to 203 °C,CCC(C#N)=C1CCN(c2ccc(N3C[C@H](CNC(=O)CBr)OC3=O)cc2F)CC1
2,149 to 150 °C,CC(C)c1ccc2c(c1)c(Sc1ccccc1)c(CCC(=O)O)n2Cc1ccc(Cl)cc1
3,174 to 176 °C,Cc1ccc2nc(-c3ccccc3C#N)ncc2c1
4,195 to 197 °C,O=C(O)CCCOc1ccc(C2=NNC(=O)CC2)cc1Cl
5,150 to 152 °C,CCc1nc2cc(Cl)c(F)cc2c(=O)n1CCc1ccccc1
6,171 to 173 °C,CCCc1c(OCCCS(=O)(=O)c2ccc(C(=O)NCC(=O)O)cc2)ccc(C(C)=O)c1O
7,261 to 264 °C,Cc1cccc(-c2c3c(cc4ccc5c(c24)OCO5)C(=O)NC3=O)c1
8,141 to 143 °C,CNCc1cc(Oc2ccc3c(C(=O)Nc4cccc(C(F)(F)F)c4)cccc3c2)ncn1
9,181 to 183 °C,Cc1ccc(C(=O)n2c3c(c4ccccc42)C(C(=O)O)CCC3)cc1 (stereo not given)
10,181 to 182 °C,CS(=O)(=O)c1ccc(-c2onc3c2-c2ccccc2CC3)cc1
11,155 to 156 °C,O=C(COc1ccccc1)NCCc1ccc(S(=O)(=O)NC(=O)c2ccc(C(=O)NCCO)nc2)cc1
12,226 to 228 °C,NCc1cccnc1C1CCN(c2c(F)c(N)c3c(=O)c(C(=O)O)cn(C4CC4)c3c2F)C1 (stereo not given)
13,178 to 179 °C,CC(C)(C)c1cc(CC2SC(=S)NC2=O)cc(C(C)(C)C)c1O (stereo not given)
14,83 °C,CCN(CC)CC(C)N1c2ccccc2Sc2ccc(C#N)cc21 (stereo not given)
15,96 to 98 °C,COc1cc(Cn2cnc3cccnc32)ccc1C(=O)N(C(C)C)C1CCCCC1
16,144 to 146 °C,O=C(O)/C(=N\OCF)c1nsc(NC(c2ccccc2)(c2ccccc2)c2ccccc2)n1
17,104 to 106 °C,CC(C)NC(=O)c1coc2ccccc2c1=O
18,151 to 153 °C,CCn1ncc2c3onc(-c4ccccc4)c3cnc21
19,120 to 122 °C,O=C1Cc2cc(NCCCc3ccccc3)ccc2N1
20,177 to 178 °C,COc1ccc(S(=O)(=O)N2CCc3cccc(-c4ccc([N+](=O)[O-])cc4)c32)cc1
21,137 to 142 °C,CC(CO)Oc1cc(Oc2ccc(S(C)(=O)=O)cc2)cc2cc(C3=NCC(CC(N)=O)S3)[nH]c12 (stereo not given)
22,135 to 136 °C,COc1ccc(C2CN(Cc3ccc4ccccc4n3)C(=O)N(Cc3ccc4ccccc4n3)C2)cc1OC1CC2CCC1C2 (stereo not given)
23,171 to 173 °C,Cc1cccc(Sc2cncc3sc(C(N)=O)cc23)c1

row,melting point,SMILES
1,178 to 180 °C,CCc1cc(S)n2nccc2n1
2,241 to 242 °C,CC(=O)Nc1ccc2oc(-c3ccccc3)c(O)c(=O)c2c1
3,> 300 °C,CCC1(CC)c2cc(-c3ccc(-c4ccc(O)cc4)cc3)ccc2-c2ccc(-c3ccc(-c4ccc(O)cc4)cc3)cc21
4,173 to 175 °C,CCOC(=O)c1nn(-c2ccc(OC)cc2)c2c1CCN(c1ccc(I)cc1)C2=O
5,128 to 132 °C,COCC(COC)N(C)Cc1ccc(NC(=O)C2=Cc3cc(-c4ccc(C)cc4)ccc3OCC2)cc1
6,78 to 80 °C,COC(=O)CCCNC(=O)C[C@H]1O[C@H](c2cccc(OC)c2OC)c2cc(Cl)ccc2N(CC(C)(C)CO)C1=O
7,> 290 °C,O=C1c2cccc(-n3c(=O)[nH]c4ncccc4c3=O)c2C2CCCCN12 (stereo not given)
8,176 to 178 °C,O=C(O)[C@@H](Cc1ccccc1)NS(=O)(=O)N1CCN(c2ccc(Cl)cc2)CC1
9,158 to 159 °C,CC(C)C(NC(=O)OCc1ccncc1)C(=O)NC(Cc1ccccc1)C(O)C(Cc1ccccc1)NC(=O)C(NC(=O)OCc1ccncc1)C(C)C (stereo not given)
10,150 to 153 °C,C[C@H](NC(=O)OC(C)(C)C)C(=O)NCc1cccc(Nc2n[nH]c3ncnc(Nc4cccc(Cl)c4)c23)c1
11,112 °C,Cc1c(Cl)cccc1S(=O)(=O)Nc1ccc2oncc2c1
12,85.5 to 87 °C,CC(C)(N=C=O)c1ccc2cc(C(C)(C)N=C=O)ccc2c1
13,139 to 140 °C,CSc1ccc(-c2cc(C(C)C)nc(N)n2)c2ccccc12
14,104 to 105 °C,C[C@H]1CC(=O)O[C@@H]1CO
15,91 to 93 °C,O=C1CC(=O)C(C2CCCSC2)CO1 (stereo not given)
16,56 to 58 °C,CCCCCCCCCCCCCCOc1ccc(CN(C(C)=O)c2cccc(CBr)c2)cc1
17,111 to 113 °C,CCCc1c(-c2ccncc2)[nH]c(-c2ccncc2)c1C(C)=O
18,110 to 111 °C,O=P(Oc1ccc2ccccc2c1)(Oc1ccc2ccccc2c1)Oc1ccc2ccccc2c1
19,190 to 192 °C,Cc1cc2c(-c3ccccc3Cl)c(NC(=O)Nc3cccc([N+](=O)[O-])c3)c(=O)n(C)c2cc1C
20,95 °C,Cc1cc(OCc2ccccc2)c(F)cc1[N+](=O)[O-]
21,150 to 152 °C,CC(C(N)=S)(c1ccccc1)c1ccccc1
22,88 to 90 °C,FC(F)(F)c1cnc(-n2ccc3ccncc32)c(Cl)c1
23,63 to 65 °C,CC(C)(C)OC(=O)NCC(Cl)c1ccsc1 (stereo not given)

row,melting point,SMILES
1,96.8 °C,CN1CCN(Cc2ccccc2Cl)C(C2=NCCO2)C1 (stereo not given)
2,158 to 160 °C,NC(=O)c1ccc(CCn2ccn(C3CCc4ccccc4C3)c2=S)cc1 (stereo not given)
3,33 to 36 °C,CCOC(=O)c1cnc2c(c1Cl)CCCCCC2
4,150 to 151 °C,O=C(NCCO)c1ccc2c3c(cc([N+](=O)[O-])c2c1)NCC3CCl (stereo not given)
5,201 to 203 °C,CCOC(=O)C(CO)NC(=O)C(CC(=O)O)NC(=O)CCNC(=O)c1ccc(C(=N)N)cc1 (stereo not given)
6,124 °C,Cc1cn(-c2cccc(C(=O)CC(=O)Nc3cc(-c4ccc(F)cc4)ccc3NC(=O)OC(C)(C)C)c2)cn1
7,258 °C,CC1SC(=O)NN=C1c1ccc2c(c1)C(=Cc1ccccc1[N+](=O)[O-])C(=O)N2 (stereo not given)
8,65 °C,CN(C)C(=O)c1cncc([N+](=O)[O-])c1
9,93 to 94.5 °C,CCN(c1ccc(F)cc1[N+](=O)[O-])S(=O)(=O)c1ccc(C)cc1
10,209 to 210 °C,CCC(C)(C)c1ccc(OCCCNC(=O)c2cc([N+](=O)[O-])c3ccccc3c2O)c(C(C)(C)CC)c1
11,213 to 216 °C,CC1(C)CC(=O)c2c(S(C)(=O)=O)sc(-c3cc[nH]n3)c2C1
12,225 °C,CN(c1cccc2cc(-c3nccs3)[nH]c12)S(=O)(=O)c1ccsc1C(=O)O
13,192 to 194 °C,CC(C)Oc1ccc(OC(=O)c2ccc(C(=O)Oc3ccc(OC(C)C)cc3)cc2)cc1
14,92 to 93 °C,CCOC(=O)CC(=O)C=Cc1cccc([N+](=O)[O-])c1
15,200 °C,CS(=O)(=O)Nc1ccc([N+](=O)[O-])cc1OC1CCSCC1
16,99.6 to 100 °C,COc1ccc(CCNc2cc(-n3cccn3)nc(-c3cccs3)n2)cc1
17,246 to 250 °C,CCCCCCCCCC(=O)Nc1cc(C(=O)O)ccc1C
18,61 to 62 °C,CCOC(=O)/C(C)=C/c1ccc(OC(C)C)cc1Oc1ncc(C(F)(F)F)cc1Cl
19,208 °C,COc1cc2[nH]c(C(=O)O)cc2c(C)c1C
20,188 to 190 °C,COc1cc(OC)n2ncc(Br)c2n1
21,145 to 148 °C,CCCCC(=O)N(Cc1ccc(-c2ccccc2-c2nnn[nH]2)cc1)C(C(=O)O)c1ccccc1 (stereo not given)
22,142 °C,O=C(Nc1ccc2[nH]c(C(F)(F)F)nc2c1)C(=O)N1CCC(Cc2ccccc2)CC1
23,75 to 79 °C,O=C(O)[C@@H]1CCc2ccccc2N1C(=O)OCc1ccccc1

row,melting point,SMILES
1,119 to 121 °C,CCO/N=C(\C)[C@H]1CC[C@H]2[C@@H]3CC=C4C[C@@H](O)CC[C@]4(C)[C@H]3CC[C@]12C
2,51 to 53 °C,CCCC1C(=O)Oc2c(Oc3ccccc3Cl)cccc21 (stereo not given)
3,113 to 114 °C,O=C(OCC1CCN(CC2CSc3ccc(F)cc3C2)CC1)c1ccc(F)cc1 (stereo not given)
4,142 to 144 °C,C1=CC[C@@]2(Cc3ccccc3)CN(Cc3ccccc3)C[C@H]2C1 (relative stereo)
5,214 to 215 °C,CN1CCN(C(=O)Oc2ccccc2)C1=C(C(=O)Oc1ccccc1)[N+](=O)[O-]
6,96 °C,OCc1c(C(F)(F)F)n(Cc2ccccc2)c2ccccc12
7,205 to 207 °C,CCC(CC)c1ccc(Cl)c2nc(Nc3c(C)cc(Cl)cc3OC)n(CC(=O)OC(C)C)c12
8,151 to 156 °C,CCN1C(=O)CC(C(=O)O)C1c1ccccc1 (stereo not given)
9,157 to 158 °C,COc1ccc(-c2csc(Nc3ccc(C)cn3)n2)c(OC)c1
10,70.5 to 72 °C,Clc1cncc(-n2cccc2)c1
11,163 to 165 °C,CCOC(=O)/C=C/c1c(-c2ccccc2)c2ccccc2c(=O)n1C
12,237 to 238 °C,COc1cc2[nH]c(N3CCCN(C(=O)N4CCOCC4)CC3)nc(=O)c2c(C)c1OC
13,214 to 216 °C,Cc1oc(-c2ccccc2)nc1CCOc1ccc(C[C@H](NC(=O)C=Cc2cccc(C(F)(F)F)c2)C(=O)O)cc1
14,164 to 166 °C,C=C(C)COc1ccc(C(=O)C=Cc2cccnc2)c(O)c1
15,228 to 232 °C,Cc1c(C(=O)N2C[C@@H](C)N[C@@H](C)C2)c2ccccc2n2cnc(C(=O)OC(C)(C)C)c12
16,145 to 146 °C,CCOC(=O)c1cc(Nc2cccc(Cl)c2)c(C(=O)OCC)cc1Nc1cccc(Cl)c1
17,223 to 224 °C,Nc1cc(Oc2cc(N)cc(C(F)(F)F)c2)cc(C(F)(F)F)c1
18,> 260 °C,COC(=O)C(C#N)=C(Nc1cccnc1)SC
19,146 to 148 °C,CC1=C(C(=O)OCCCO[N+](=O)[O-])C(c2cccc([N+](=O)[O-])c2)C(C(=O)OCCNC(=O)c2ccccn2)=C(C)N1 (stereo not given)
20,33 to 35 °C,CCCCCCCCCCCCSC(=S)SSC(=S)SCCCCCCCCCCCC
21,177 °C,CCOc1cc(-c2cc(C(F)(F)F)n3cnc(-c4ccnc(C)c4)c3n2)ccc1C(F)(F)F

row,SMILES,melting point
1,CCOC(=O)c1cc(C(=O)OCC)n(C(C)c2ccccn2)n1 (stereo not given),63 to 65 °C
2,Cc1ccc(NC(=O)Nc2ccc(N(CCCl)CCCl)cc2)cc1Nc1c2cccc(C)c2nc2c(C(=O)NCCN(C)C)cccc12,286 to 289 °C
3,CCC1(c2ccccc2)C(=O)N(CCO)C(=O)N(CCO)C1=O,107 to 109 °C
4,CCCCCCCCCCCCSC1c2cccc(O)c2C(=O)c2c(O)cccc21,76 °C
5,Cc1nc2cc(NC(=O)c3cc4cc(F)ccc4n3Cc3cccc(F)c3)ccn2c1C,251 to 253 °C
